This note sets out measurements from ChEMBL document CHEMBL3044795, “Synthesis and biological evaluation of novel benzoquinones as potential antimicrobial agents” (2013).

Holding throughout (type): functional
The subject of assay [1] is Pseudomonas aeruginosa. As to the kind of experiment: Antibacterial activity against Pseudomonas aeruginosa ATCC 10145 assessed as diamater of growth inhibition zone after 24 hr by agar cup diffusion method.
Assay [2] concerns Escherichia coli. The assay can be described thus: Antibacterial activity against Escherichia coli ATCC 11775 assessed as growth inhibition after 24 hr by two-fold serial dilution method. The settings on record: ATCC 11775, 24 h.
Assay [3] deals with Escherichia coli. As to the kind of experiment: Antibacterial activity against Escherichia coli ATCC 11775 assessed as diamater of growth inhibition zone after 24 hr by agar cup diffusion method.
The subject of assay [4] is Escherichia coli. As to the kind of experiment: Antibacterial activity against Escherichia coli ATCC 11775 assessed as growth inhibition after 24 hr. The settings on record: ATCC 11775, 24 h.
Assay [5] relates to Staphylococcus aureus. As to the kind of experiment: Antibacterial activity against Staphylococcus aureus DSM 1104 assessed as diamater of growth inhibition zone after 24 hr by agar cup diffusion method.
The subject of assay [6] is Pseudomonas aeruginosa. The assay can be described thus: Antibacterial activity against Pseudomonas aeruginosa ATCC 10145 assessed as growth inhibition after 24 hr by two-fold serial dilution method. Particulars: ATCC 10145, 24 h.
Assay [7] has as its system Bacillus subtilis. As to the kind of experiment: Antibacterial activity against Bacillus subtilis ATCC 6633 assessed as growth inhibition after 24 hr by two fold serial dilution method. Particulars: ATCC 6633, 24 h.
The subject of assay [8] is Staphylococcus aureus. As to the kind of experiment: Antibacterial activity against Staphylococcus aureus DSM 1104 assessed as growth inhibition after 24 hr by two fold serial dilution method. Particulars: DSM 1104, 24 h.
Assay [9] relates to Candida albicans. As to the kind of experiment: Antifungal activity against Candida albicans DSM 70014 assessed as growth inhibition after 48 hr. Particulars: DSM 70014, 48 h.
For assay [10], the system named is Bacillus subtilis. The assay can be described thus: Antibacterial activity against Bacillus subtilis ATCC 6633 assessed as growth inhibition after 24 hr. Particulars: ATCC 6633, 24 h.
Assay [11] relates to Staphylococcus aureus. As to the kind of experiment: Antibacterial activity against Staphylococcus aureus DSM 1104 assessed as growth inhibition after 24 hr. The settings on record: DSM 1104, 24 h.
Assay [12] deals with Bacillus subtilis. As to the kind of experiment: Antibacterial activity against Bacillus subtilis ATCC 6633 assessed as diamater of growth inhibition zone after 24 hr by agar cup diffusion method.
Assay [13] has as its system Candida albicans. The assay can be described thus: Antifungal activity against Candida albicans DSM 70014 assessed as diamater of growth inhibition zone after 48 hr by agar cup diffusion method.
Assay [14] deals with Candida albicans. As to the kind of experiment: Antifungal activity against Candida albicans DSM 70014 assessed as growth inhibition after 48 hr by two-fold serial dilution method. Particulars: DSM 70014, 48 h.
Assay [15] deals with Pseudomonas aeruginosa. As to the kind of experiment: Antibacterial activity against Pseudomonas aeruginosa ATCC 10145 assessed as growth inhibition after 24 hr. The settings on record: ATCC 10145, 24 h.

Converted amounts (≈) assume the structure as drawn.

Take `COc1cc(/C=N/N=c2\scc(C3=CC(=O)C=CC3=O)n2-c2ccccc2)ccc1O`: the “diameter of the inhibition zone (DIZ)” value in [1] is reported as 14 mm; in [3] it was 15 mm; in assay [5] it was 15 mm; in assay [12], 15 mm; in assay [13], 12 mm. Also, the MIC (in general, the least concentration at which growth counts as inhibited) in [2] amounted to 100 µg/mL (≈ 232 µM); in [6] it was 100 µg/mL (≈ 232 µM); in [7], 50 µg/mL (≈ 116 µM); in assay [8], 25 µg/mL (≈ 57.9 µM); in assay [14], 25 µg/mL (≈ 57.9 µM). Further, the MBC (in general, the lowest tested concentration that kills the bacteria rather than only halting them) in [4] turned out to be 100 µg/mL (≈ 232 µM); in assay [10] it was 100 µg/mL (≈ 232 µM); in [11], 50 µg/mL (≈ 116 µM); in assay [15], 100 µg/mL (≈ 232 µM). The MFC (usually the lowest tested concentration that kills the fungus rather than only halting it) in assay [9] stood at 50 µg/mL (≈ 116 µM).

Consider `COc1ccc(/C=N/N=c2\scc(C3=CC(=O)C=CC3=O)n2-c2ccccc2)cc1O`, for which the “diameter of the inhibition zone (DIZ)” value is reported as 16 mm in [1]; 14 mm in assay [3]; 14 mm in assay [5]; 15 mm in assay [12]; 14 mm in assay [13]. Moreover, the MIC came out at 50 µg/mL (≈ 116 µM) in [2]; 100 µg/mL (≈ 232 µM) in assay [6]; 100 µg/mL (≈ 232 µM) in assay [7]; 50 µg/mL (≈ 116 µM) in [8]; 100 µg/mL (≈ 232 µM) in assay [14]. For the same compound, the MBC in assay [4] stood at 50 µg/mL (≈ 116 µM); in [10], 100 µg/mL (≈ 232 µM); in assay [11] it was 50 µg/mL (≈ 116 µM); in assay [15], 100 µg/mL (≈ 232 µM). Also, the MFC in assay [9] was found to be 100 µg/mL (≈ 232 µM).

With `COc1ccc(OC)c(/C=N/N=c2\scc(C3=CC(=O)C=CC3=O)n2-c2ccc(C)cc2)c1`, the “diameter of the inhibition zone (DIZ)” value is 14 mm in [1]; 14 mm in assay [3]; 16 mm in [5]; 15 mm in assay [12]; 13 mm in [13]. Further, the MIC in assay [2] is 25 µg/mL (≈ 54.4 µM); in [6] it was 25 µg/mL (≈ 54.4 µM); in assay [7], 12.5 µg/mL (≈ 27.2 µM); in assay [8] it was 12.5 µg/mL (≈ 27.2 µM); in [14] it was 25 µg/mL (≈ 54.4 µM). Moreover, the MBC in [4] came to 50 µg/mL (≈ 109 µM); in assay [10], 25 µg/mL (≈ 54.4 µM); in [11], 25 µg/mL (≈ 54.4 µM); in [15], 50 µg/mL (≈ 109 µM). For the same compound, the MFC in assay [9] worked out at 50 µg/mL (≈ 109 µM).

On to `COc1cc(/C=N/N=c2\scc(C3=CC(=O)C=CC3=O)n2-c2ccc(C)cc2)ccc1O`, for which the “diameter of the inhibition zone (DIZ)” value in assay [1] was 15 mm; in [3], 15 mm; in [5], 14 mm; in assay [12] it was 15 mm; in assay [13] it was 15 mm. Moreover, the MIC in assay [2] came to 50 µg/mL (≈ 112 µM); in assay [6], 100 µg/mL (≈ 224 µM); in [7] it was 100 µg/mL (≈ 224 µM); in assay [8], 25 µg/mL (≈ 56.1 µM); in [14], 50 µg/mL (≈ 112 µM). Also, the MBC turned out to be 50 µg/mL (≈ 112 µM) in [4], 100 µg/mL (≈ 224 µM) in assay [10], 50 µg/mL (≈ 112 µM) in assay [11] and 100 µg/mL (≈ 224 µM) in assay [15]. Besides, in assay [9], the MFC was found to be 50 µg/mL (≈ 112 µM).

For the compound `COc1ccc(/C=N/N=c2\scc(C3=CC(=O)C=CC3=O)n2-c2ccc(C)cc2)cc1O`, the “diameter of the inhibition zone (DIZ)” value came out at 14 mm in assay [1]; 14 mm in assay [3]; 15 mm in assay [5]; 14 mm in [12]; 15 mm in [13]. The MIC was 50 µg/mL (≈ 112 µM) in [2]; 50 µg/mL (≈ 112 µM) in assay [6]; 50 µg/mL (≈ 112 µM) in [7]; 100 µg/mL (≈ 224 µM) in [8]; 50 µg/mL (≈ 112 µM) in assay [14]. Also, the MBC in assay [4] worked out at 50 µg/mL (≈ 112 µM); in assay [10], 50 µg/mL (≈ 112 µM); in assay [11], 100 µg/mL (≈ 224 µM); in [15], 50 µg/mL (≈ 112 µM). Also, the MFC in [9] worked out at 100 µg/mL (≈ 224 µM).

In the case of `COc1ccc(/C=N/N=c2\scc(C3=CC(=O)C=CC3=O)n2-c2ccc(Cl)cc2)cc1`, the “diameter of the inhibition zone (DIZ)” value in assay [1] is 16 mm; in assay [3], 16 mm; in assay [5], 14 mm; in assay [12], 15 mm; in assay [13], 14 mm. The MIC in [2], in assay [6], in assay [7], in assay [8] and in assay [14] was 100 µg/mL (≈ 222 µM) throughout. The MBC in [4], in assay [10], in assay [11] and in assay [15] was 100 µg/mL (≈ 222 µM) in each case. The MFC in assay [9] is 100 µg/mL (≈ 222 µM).

For `COc1ccc(OC)c(/C=N/N=c2\scc(C3=CC(=O)C=CC3=O)n2-c2ccc(Cl)cc2)c1`, the “diameter of the inhibition zone (DIZ)” value in assay [1] is 16 mm; in [3] it was 13 mm; in assay [5], 14 mm; in assay [12], 14 mm; in assay [13] it was 14 mm. Besides, the MIC in [2] turned out to be 100 µg/mL (≈ 208 µM); in assay [6] it was 100 µg/mL (≈ 208 µM); in [7], 100 µg/mL (≈ 208 µM); in assay [8], 25 µg/mL (≈ 52.1 µM); in [14], 50 µg/mL (≈ 104 µM). For the same compound, the MBC in assay [4] was 100 µg/mL (≈ 208 µM); in assay [10], 100 µg/mL (≈ 208 µM); in [11], 50 µg/mL (≈ 104 µM); in assay [15], 100 µg/mL (≈ 208 µM). The MFC in assay [9] was 100 µg/mL (≈ 208 µM).

On to `COc1cc(/C=N/N=c2\scc(C3=CC(=O)C=CC3=O)n2-c2ccc(Cl)cc2)ccc1O`, for which the “diameter of the inhibition zone (DIZ)” value in assay [1] was determined as 15 mm; in assay [3] it was 16 mm; in assay [5] it was 16 mm; in assay [12] it was 14 mm; in [13] it was 15 mm. The minimum inhibitory concentration (MIC) amounted to 100 µg/mL (≈ 215 µM) in assay [2]; 50 µg/mL (≈ 107 µM) in assay [6]; 100 µg/mL (≈ 215 µM) in assay [7]; 100 µg/mL (≈ 215 µM) in assay [8]; 50 µg/mL (≈ 107 µM) in assay [14]. Further, the MBC in assay [4], in [10], in [11] and in assay [15] was 100 µg/mL (≈ 215 µM) in each case. Further, in assay [9], the MFC was found to be 50 µg/mL (≈ 107 µM).

Regarding `COc1ccc(/C=N/N=c2\scc(C3=CC(=O)C=CC3=O)n2-c2ccc(Cl)cc2)cc1O`, the “diameter of the inhibition zone (DIZ)” value worked out at 14 mm in [1]; 14 mm in [3]; 13 mm in [5]; 14 mm in assay [12]; 15 mm in assay [13]. For the same compound, the MIC in [2] was 25 µg/mL (≈ 53.7 µM); in assay [6], 50 µg/mL (≈ 107 µM); in assay [7] it was 25 µg/mL (≈ 53.7 µM); in [8], 50 µg/mL (≈ 107 µM); in assay [14], 12.5 µg/mL (≈ 26.8 µM). Moreover, the MBC in [4], in assay [10], in assay [11] and in assay [15] was 50 µg/mL (≈ 107 µM) in each case. Further, in assay [9], the MFC turned out to be 25 µg/mL (≈ 53.7 µM).

As to `CC1(C)S[C@@H]2[C@H](NC(=O)[C@H](N)c3ccccc3)C(=O)N2[C@H]1C(=O)O.O.O.O` [AMPICILLIN TRIHYDRATE], the MIC came to 10 µg/mL in assay [2], 50 µg/mL in assay [6], 12.5 µg/mL in [7] and 5 µg/mL in assay [8].

In the case of `Clc1ccccc1C(c1ccccc1)(c1ccccc1)n1ccnc1` [CLOTRIMAZOLE], the MIC in assay [14] amounted to 5 µg/mL (≈ 14.5 µM).
